Results taken from patent publication US7736624B2, “Methods and compositions for diagnostic and therapeutic targeting of COX-2” (priority 2006, dated 2010).
pIC50: −log10 of the molar value. Read-outs that look alike come from different tables or passages of the source.

Assays:
[1] = molecular target: T1, COX-2 (Mus musculus, UniProt Q05769); test: Macrophage assay (RAW264.7), COX-2; assay type: cell-based, murine
T1 construct: metabolism by the newly synthesized COX-2; endogenous in cells
T1 sequence (Q05769 18-604): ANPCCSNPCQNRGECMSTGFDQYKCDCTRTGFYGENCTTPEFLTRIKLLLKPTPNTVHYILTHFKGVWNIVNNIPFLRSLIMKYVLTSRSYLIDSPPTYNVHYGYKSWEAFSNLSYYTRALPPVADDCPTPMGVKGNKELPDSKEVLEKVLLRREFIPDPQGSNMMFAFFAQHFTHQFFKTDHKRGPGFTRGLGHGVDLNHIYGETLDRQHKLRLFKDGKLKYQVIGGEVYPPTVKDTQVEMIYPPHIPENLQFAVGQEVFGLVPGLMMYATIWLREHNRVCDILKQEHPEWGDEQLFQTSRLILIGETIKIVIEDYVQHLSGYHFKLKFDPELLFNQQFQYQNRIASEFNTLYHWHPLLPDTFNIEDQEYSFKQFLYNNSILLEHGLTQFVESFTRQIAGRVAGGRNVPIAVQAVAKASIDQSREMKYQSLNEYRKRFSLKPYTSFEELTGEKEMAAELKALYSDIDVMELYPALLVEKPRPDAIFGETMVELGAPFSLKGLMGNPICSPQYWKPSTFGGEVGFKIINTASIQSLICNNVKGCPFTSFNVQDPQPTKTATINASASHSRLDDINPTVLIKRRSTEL
Excerpt: Thus, NSAID derivatives that are identified as potentially useful in the methods described herein can be further tested using, for example, the RAW264.7 murine macrophage cell line. These cells are readily available (for example, from the American Type Culture Collection (ATCC), Manassas, Va., United States of America) and are easily cultured in large numbers. They normally express low levels of COX-1 and very low to undetectable levels of COX-2. Upon exposure to bacterial lipopolysaccharide (LPS), however, COX-2 levels increase dramatically over the ensuing 24 hour period, and the cells produce PGD2 and PGE2 from endogenous arachidonic acid stores (generally, ˜1 nmol/10^7 cells total PG formation). After LPS exposure, the addition of exogenous arachidonic acid results in the formation of additional PGD2 and PGE2 as a result of metabolism by the newly synthesized COX-2.
This system provides a number of approaches for testing the inhibitory potency of COX-2-selective ligands (e.g., inhibitors). In general, following LPS activation, cells can be treated for 30 minutes with the desired concentrations of candidate derivative(s) in DMSO. ^14C-arachidonic acid can be added, and the cells can be incubated for 15 minutes at 37° C. Product formation can be assessed following extraction and TLC separation of the culture medium. Alternatively, the effects of candidate derivatives on PG synthesis from endogenous arachidonic acid can be assessed by incubating cells with desired concentrations of candidate derivatives 30 minutes prior to LPS exposure. Following a 24-hour incubation, medium can be collected and extracted, and the amount of PGD2 and/or PGE2 can be assayed by gas chromatography-mass spectrometry, liquid chromatography-mass spectrometry, or ELISA.

[2] = molecular target: T2, COX-2 (Homo sapiens, UniProt P35354); test: IC50 determinations using purified enzymes (TLC assay), COX-2; assay type: biochemical; design: made in house; host or cells: Sf9 insect cells; details: assayed against purified enzymes, read-out: IC50 COX-2
T2 sequence (P35354 18-604): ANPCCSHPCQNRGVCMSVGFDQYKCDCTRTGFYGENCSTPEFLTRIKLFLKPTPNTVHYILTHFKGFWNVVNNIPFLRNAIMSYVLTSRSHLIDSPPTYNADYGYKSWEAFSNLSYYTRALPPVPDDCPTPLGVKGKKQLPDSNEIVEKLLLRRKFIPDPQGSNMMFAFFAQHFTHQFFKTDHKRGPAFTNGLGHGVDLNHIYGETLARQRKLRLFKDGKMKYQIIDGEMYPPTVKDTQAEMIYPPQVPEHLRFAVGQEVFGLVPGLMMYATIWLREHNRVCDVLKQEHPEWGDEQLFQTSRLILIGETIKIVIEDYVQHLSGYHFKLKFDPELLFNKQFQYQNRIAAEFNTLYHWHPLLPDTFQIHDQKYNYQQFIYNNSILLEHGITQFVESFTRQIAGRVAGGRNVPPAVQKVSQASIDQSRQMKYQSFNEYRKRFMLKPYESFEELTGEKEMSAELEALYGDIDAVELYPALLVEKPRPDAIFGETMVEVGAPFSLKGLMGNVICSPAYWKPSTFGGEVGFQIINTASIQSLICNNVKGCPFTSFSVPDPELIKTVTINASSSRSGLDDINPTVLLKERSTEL

[3] = Table 3, macrophage assay, read-out: IC50 COX-2

| Compound | pIC50 [1, 3] | pIC50 ([2]; Table 3) | pIC50 ([1]; read-out: IC50 in RAW 264.7 cells) | IC50 ([1]; Table 2, macrophage assay (M), read-out: IC50 COX-2) | pIC50 ([2]; Table 2) |
| --- | --- | --- | --- | --- | --- |
| COc1ccc2c(c1)c(CC(=O)NCCNS(=O)(=O)c1ccc(/N=N/c3ccc(N(C)C)cc3)cc1)c(C)n2C(=O)c1ccc(Cl)cc1 [Compound 27aa, N-(2-Dabsylaminoethyl)-2-{1-(4-chlorobenzoyl)-5-methoxy-2-methyl-1H-indol-3-yl}acetamide] | 6.74 | 7.10 | – | – | – |
| COc1ccc2c(c1)c(CC(=O)NCCCCNC(=O)c1ccc(C3=c4cc5c6c(c4Oc4c3cc3c7c4CCCN7CCC3)CCC[N+]=6CCC5)c(C(=O)[O-])c1)c(C)n2C(=O)c1ccc(Cl)cc1 [Compound 27eee] | – | 6.15 | 6.49 | – | – |
| COc1ccc2c(c1)c(CC(=O)NCCCCNC(=O)Cc1ccc(Nc3ccc([N+](=O)[O-])c4nonc34)cc1)c(C)n2C(=O)c1ccc(Cl)cc1 [Compound 27ii, N-([2-{4-(7-nitrobenzo[1,2,5]oxadiazol-4-ylamino)phenyl}acetamido]but-4-yl)-2-{1-(4-chlorobenzoyl)-5-methoxy-2-methyl-1H-indol-3-yl]acetamide] | 6.24 | 6.30 | – | – | – |
| COc1ccc2c(c1)c(CC(=O)NCCCCNC(=O)c1ccc(C(=O)O)c(-c3c4ccc(=O)cc-4oc4cc(O)ccc34)c1)c(C)n2C(=O)c1ccc(Cl)cc1 [Compound 27qq, N-[(Fluorescein-6-carboxylamido)but-4-yl]-2-[1-(4-chlorobenzoyl)-5-methoxy-2-methyl-1H-indol-3-yl)acetamide] | 6.73 | < 4.60 | – | – | – |
| CC[N+](CC)=c1ccc2c(-c3ccccc3)c(C)c(/C=C/C=C3/N(CCCCCC(=O)NCCCCNC(=O)Cc4c(C)n(C(=O)c5ccc(Cl)cc5)c5ccc(OC)cc45)c4ccc(S(=O)(=O)[O-])cc4C3(C)C)oc-2c1 [Compound 27ttt] | 6.05 | 6.00 | – | – | – |
| CC[N+](CC)=c1ccc2nc3c(cc(NC(=O)CCOCCOCCOCCOCCNC(=O)Cc4c(C)n(C(=O)c5ccc(Cl)cc5)c5ccc(OC)cc45)c4ccccc43)oc-2c1 [Compound 27uu, N-[5-)1-{1-(4-chlorobenzoyl)-5-methoxy-2-methyl-1H-indol-3-yl}-2-6,9,12,15-tetraoxa-3-azaoctadecanamido]-9H-benzo[a]penoxazin-9-ylidene)-N-ethylethanaminium perchlorate] | 7.07 | 5.77 | – | – | – |

More lines, now with the values ahead:

| pIC50 [1, 3] | pIC50 ([2]; Table 3) | pIC50 ([1]; read-out: IC50 in RAW 264.7 cells) | IC50 ([1]; Table 2, macrophage assay (M), read-out: IC50 COX-2) | pIC50 ([2]; Table 2) | Compound |
| --- | --- | --- | --- | --- | --- |
| – | 5.46 | – | – | – | COc1ccc2c(c1)c(CC(=O)NCCCCNC(=O)c1ccc(C(=O)[O-])c(C3=c4cc5c6c(c4Oc4c3cc3c7c4CCCN7CCC3)CCC[N+]=6CCC5)c1)c(C)n2C(=O)c1ccc(Cl)cc1 [Compound 27vv] |
| 7.52 | 7.18 | – | – | – | COc1ccc2c(c1)c(CC(=O)NCCNS(=O)(=O)c1cccc3c(N(C)C)cccc13)c(C)n2C(=O)c1ccc(Cl)cc1 [Compound 27x] |
| – | – | – | 1.1e-07 M | 6.04 | COC(=O)c1cc(-c2ccc(C)cc2)n(-c2ccc(S(N)(=O)=O)cc2)n1 [Compound 30b] |
